Experimental data reported in article PMC11825364, “Development of supramolecular anticoagulants with on-demand reversibility” (Nature Biotechnology, 2024).
One block for each molecule: values may come before it.

Key:
[1] = target: Biotin-PNA (8-mer) ACAACTGC; assay: SPR of PNA hybridization; assay type: binding; conditions: 25 °C
Method: SPR experiments were performed on a Biacore T200 instrument (GE Healthcare) at 25 °C in PBS-P+ buffer (10× stock; Cytiva Life Sciences, 28995084). Biotin-PNA (8-mer) was immobilized on a Streptavidin Series S sensor chip (Cytiva Life Sciences, 29104992). Before immobilization, the two channels were conditioned with 1 M NaCl in 50 mM NaOH. After stabilization, the compound (solution in PBS-P+) was flowed over one of the flow cells of the sensor chip at a concentration of 50 nM at a flow rate of 10 μl min^−1 with a response unit target of 500. Biotin-PNA (8-mer) reached a response unit value of 513.7. The system (not including the flow cells) was washed with 50% isopropanol in 1 M NaCl and 50 mM NaOH after each ligand injection. Kinetic measurements consisted of injections (association, 400 s; dissociation, 450 s; flow rate, 30 μl min^−1) of decreasing concentrations of PNA (4-, 6- and 8-mer; twofold cascade dilutions from the starting concentration). The chip was regenerated between cycles by one injection of regeneration solution (50 mM NaOH) for 10 s at a flow rate of 20 μl min^−1, followed by a 10-s stabilization period. Binding was measured as resonance units over time after blank subtraction, and the data were interpreted using Biacore T200 software (version 3.2). All measurements were performed in duplicate. The KD values were calculated based on steady-state affinity (1:1 binding).

[2] = target: T1, human α-thrombin (Homo sapiens, UniProt P00734); assay: Michaelis Menten determination of KM of the fluorogenic substrate; assay type: biochemical; conditions: without inhibitor, variation of [substrate]; R2 0.98
T1 construct: human α-thrombin (Haematologic Technologies, HCT0020); purchased Haematologic Technologies HCT0020
Method: Inhibition assays were performed using 0.2 nM enzyme, 20 μM substrate and increasing concentrations of inhibitor. The concentration of each inhibitor variant was determined using the absorbance of the PNA at 260 nm, as measured by NanoDrop. All reactions were performed at 37 °C in 50 mM Tris-HCl (pH 8.0), 50 mM NaCl and 1 mg ml^–1 bovine serum albumin in black 96-well microtiter plates (Thermo Fisher Scientific, 267342). Reaction progress was monitored by excitation at 339 nm and emission at 439 nm using a SpectraMax or Tecan Spark Plate Reader. Dose–response curves were used to determine the half-maximal inhibitory concentrations (IC50) using Prism 8.0 (GraphPad Software). For each inhibitor, the reactions were performed in triplicate, together with control reactions in the absence of enzyme. The initial velocity was calculated from the slope of the first 10 min of the assay. The curves were normalized to the well without inhibitor, where the initial velocity was set to 100% activity.
MALDI-TOF; m/z found: 1202.95.
5. Thrombin Inhibition Assay
Supplementary Figure 2: Thrombin Fluorogenic Assay
The assay was performed as described in the Online Methods section.
To convert IC50 values to Ki values, KM was determined: The assay described above was performed
without inhibitor but with variation of [substrate]. The Michaelis Menten plot was obtained, and KM […]

[3] = system: C57BL/6J mice; assay: Needle injury thrombosis model; assay type: in vivo, mouse; conditions: A1–E1 5 mg per kg i.v. bolus twice 30 min apart, argatroban 2 mg per kg bolus + 12 mg per kg infusion over 60 min
Method: For intravital mouse studies, male mice aged between 5 and 8 weeks old (15–20 g) were used.
A clinical preparation of argatroban (Argatra/Exembol) was purchased from Mitsubishi Tanabe Pharma (Germany) and prepared in sterile saline with 25% (vol/vol) propylene glycol. Synthesized PNA inhibitors and PNA inhibitors + antidote solutions were prepared in sterile saline at a concentration of 2 mg ml^–1. C57BL/6J male mice (15–25 g) were anesthetized with ketamine (150 mg per kg (body weight)) and xylazine (15 mg per kg (body weight)), supplemented with oxygen and subjected to intravital needle injury, as previously described[42]. […] Following each injury, platelet thrombus formation and fibrin generation were monitored over a 15-min period using a confocal intravital microscopy platform (Nikon A1R-Si with an Apo LWD, ×40/1.15-NA water immersion objective; sequential excitation: 488-, 561- and 638-nm lasers; emission: 525/50-, 595/50- and 700/75-nm filters) and NIS Elements Advanced Research acquisition software. […]
The signal obtained from DyLight 649-conjugated anti-GP1bβ for each xyz stack in a time series was thresholded to create a mask. The total signal (arbitrary units) from Alexa Fluor 546-conjugated anti-fibrin within this mask (that is, the fibrin signal within the thrombus) for each time point was then quantified using NIS Elements software (Nikon). […]

Kd [1]: 4.14 µM
Molecule: CAGT

Km [2]: 2.42 µM
Vmax [2]: 435.8
Molecule: phe-Pro-Arg-Coumarin [(S)-1-(D-phenylalanyl)-N-((S)-5-guanidino-1-((4-methyl-2-oxo-2H-chromen-7-yl)amino)-1-oxopentan-2-yl)pyrrolidine-2-carboxamide, substrate of the thrombin assay]

Molecule: CC1CNc2c(cccc2S(=O)(=O)N[C@@H](CCCNC(=N)N)C(=O)N2CC[C@@H](C)C[C@@H]2C(=O)O)C1 (stereo partly shown) [argatroban]
fibrin formation and thrombus size [3]: significant decreases in fibrin formation and thrombus size
